This note sets out measurements from US9833497B2, “Human originated EGF domain proteins and use of the same” (CHENGDU SOURCEBIO LIMITED-LIABILITY COMPANY, priority 2013, dated 2017).

Holding throughout (type): cell-based
One experiment relates to Moraxella catarrhalis. Kind of experiment: MIC against Gram-negative bacteria: Moraxella catarrhalis. The note with it: 5×10^5 CFU/mL, 10 h cultivation at 37° C.; for MIC against M. catarrhalis: Moraxella catarrhalis; for MIC M. catarrhalis: two-fold serial dilution. The procedure, abridged:
(§1)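 Bacteria grown in LB at 37° C to McFarland 0.5, resuspended and seeded at 5×10^5 CFU/mL in 96-well plates. Purified human EGF-domain proteins two-fold serially diluted, triplicate wells; cultured at 37° C, shaking 175 rpm. MIC = lowest protein concentration with no growth.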

Another experiment has as its system Aeromonas hydrophila. Kind of experiment: MIC against Gram-negative bacteria: Aeromonas hydrophila. The note with it: 5×10^5 CFU/mL, 10 h cultivation at 37° C.; for MIC against A. hydrophila: Aeromonas hydrophila; for MIC A. hydrophila: two-fold serial dilution. In outline:
as §1

The next experiment concerns E. coli BL21. Kind of experiment: MIC against Gram-negative bacteria: E. coli BL21. To be noted: 5×10^5 CFU/mL, 10 h cultivation at 37° C.; for MIC E. coli BL21: two-fold serial dilution. The procedure, abridged:
as §1

A further experiment relates to Klebsiella pneumonia. Kind of experiment: MIC against Gram-negative bacteria: Klebsiella pneumonia. To be noted: 5×10^5 CFU/mL, 10 h cultivation at 37° C.; for MIC against K. pneumonia: Klebsiella pneumonia; for MIC K. pneumonia: two-fold serial dilution. In outline:
as §1

The next experiment concerns Serratia marcescens. In words: MIC against Gram-negative bacteria: Serratia marcescens. To be noted: 5×10^5 CFU/mL, 10 h cultivation at 37° C.; for MIC against S. marcescens: Serratia marcescens; for MIC S. marcescens: two-fold serial dilution. The procedure, abridged: as §1
The subject of the next experiment is Proteus vulgaris. Kind of experiment: MIC against Gram-negative bacteria: Proteus vulgaris. The note with it: 5×10^5 CFU/mL, 10 h cultivation at 37° C.; for MIC against P. vulgaris: Proteus vulgaris; for MIC P. vulgaris: two-fold serial dilution. In outline:
as §1

In the next experiment the test system is E. coli DH5α. Kind of experiment: Antibacterial activity: MIC and growth curve against E. coli DH5α in 96-well plate. The note with it: minimal inhibitory concentration against E. coli DH5α; 96-well plate, 5×10^5 CFU/mL, 37° C., judged after 8 h. In outline: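 Log-phase DH5α (OD600 about 0.5, 37° C, 185 rpm in LB) was pelleted, resuspended in fresh LB and seeded at 5×10^5 CFU/mL with recombinant protein at 50, 25 and 12.5 μg/mL (two-fold series), in triplicate. Plates were shaken at 175 rpm, 37° C, and OD600 was read every 30 min. MIC was the lowest concentration with no growth.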

The test system of the next experiment is Enterobacter cloacae. In words: MIC against Gram-negative bacteria: Enterobacter cloacae. The note with it: 5×10^5 CFU/mL, 10 h cultivation at 37° C.; for MIC against E. cloacae: Enterobacter cloacae; for MIC E. cloacae: two-fold serial dilution. In outline:
as §1

For a further experiment, the system named is Pseudomonas aeruginosa. In words: MIC against Gram-negative bacteria: Pseudomonas aeruginosa. To be noted: 5×10^5 CFU/mL, 10 h cultivation at 37° C.; for MIC against P. aeruginosa: Pseudomonas aeruginosa; for MIC P. aeruginosa: two-fold serial dilution. The procedure, abridged: as §1
For the next experiment, the system named is Proteus mirabilis. Kind of experiment: MIC against Gram-negative bacteria: Proteus mirabilis. To be noted: 5×10^5 CFU/mL, 10 h cultivation at 37° C.; for MIC against P. mirabilis: Proteus mirabilis; for MIC P. mirabilis: two-fold serial dilution. The procedure, abridged:
as §1

The test system of a further experiment is Citrobacter diversus. In words: MIC against Gram-negative bacteria: Citrobacter diversus. To be noted: 5×10^5 CFU/mL, 10 h cultivation at 37° C.; for MIC against C. diversus: Citrobacter diversus; for MIC C. diversus: two-fold serial dilution. In outline:
as §1

Take “PRT1367 (YPACPENCSGHGECVRGVCQCHEDFMSEDCS; listed as Homo sapiens)”: in the experiment with Moraxella catarrhalis, the “MIC against M. catarrhalis” value came out at 50 µg/mL. Also, in the experiment on Aeromonas hydrophila, the “MIC against A. hydrophila” value is 50 µg/mL. Besides, in the experiment on E. coli BL21 (E. coli BL21), the “MIC against E. coli BL21” value stood at 50 µg/mL. Further, the “MIC against K. pneumonia” value against Klebsiella pneumonia is 12.5 µg/mL. Moreover, the “MIC against S. marcescens” value against Serratia marcescens is 25 µg/mL. In the experiment on Proteus vulgaris, the “MIC against P. vulgaris” value turned out to be 50 µg/mL. For the same substance, in the experiment with E. coli DH5α, the MIC (usually the least concentration at which growth counts as inhibited) is 25 µg/mL. Also, in the experiment with Enterobacter cloacae, the “MIC against E. cloacae” value is 25 µg/mL. Moreover, in the experiment with Pseudomonas aeruginosa, the “MIC against P. aeruginosa” value is 25 µg/mL. Moreover, the “MIC against P. mirabilis” value in the experiment with Proteus mirabilis is 12.5 µg/mL. Moreover, the “MIC against C. diversus” value with Citrobacter diversus came out at 12.5 µg/mL.
As to “PRT1109 (EPRGCATQPCHHGALCVPQGPDPTGFRCYCVPGFQGPRCE; listed as Homo sapiens)”, the “MIC M. catarrhalis” value in the experiment with Moraxella catarrhalis came to 25 µg/mL. In the experiment with Aeromonas hydrophila, the “MIC A. hydrophila” value came out at 50 µg/mL. The “MIC E. coli BL21” value against E. coli BL21 is 25 µg/mL. Further, in the experiment with Klebsiella pneumonia, the “MIC K. pneumonia” value was found to be 25 µg/mL. Also, in the experiment with Serratia marcescens, the “MIC S. marcescens” value amounted to 12.5 µg/mL. Besides, the “MIC P. vulgaris” value against Proteus vulgaris was found to be 25 µg/mL. The MIC in the experiment on E. coli DH5α amounted to 12.5 µg/mL. Also, in the experiment on Enterobacter cloacae, the “MIC E. cloacae” value worked out at 12.5 µg/mL. In addition, the “MIC P. aeruginosa” value against Pseudomonas aeruginosa was found to be 12.5 µg/mL. Further, the “MIC P. mirabilis” value in the experiment with Proteus mirabilis turned out to be 50 µg/mL. Besides, the “MIC C. diversus” value with Citrobacter diversus is 12.5 µg/mL.
For “PRT1193 (DANECEGKPCLNAFSCKNLIGGYYCDCIPGWKGINCH; listed as Homo sapiens)”, in the experiment on Moraxella catarrhalis, the “MIC M. catarrhalis” value turned out to be 12.5 µg/mL. For the same substance, in the experiment with Aeromonas hydrophila, the “MIC A. hydrophila” value was found to be 12.5 µg/mL. In the experiment on E. coli BL21, the “MIC E. coli BL21” value stood at 12.5 µg/mL. The “MIC K. pneumonia” value with Klebsiella pneumonia was 25 µg/mL. Moreover, the “MIC S. marcescens” value with Serratia marcescens is 12.5 µg/mL. The “MIC P. vulgaris” value in the experiment with Proteus vulgaris came to 25 µg/mL. In the experiment with E. coli DH5α, this substance yielded an MIC of 12.5 µg/mL. Besides, the “MIC E. cloacae” value in the experiment with Enterobacter cloacae was found to be 12.5 µg/mL. In addition, the “MIC P. aeruginosa” value against Pseudomonas aeruginosa came to 12.5 µg/mL. Also, in the experiment on Proteus mirabilis, the “MIC P. mirabilis” value was determined as 50 µg/mL. Further, the “MIC C. diversus” value in the experiment with Citrobacter diversus stood at 25 µg/mL.
In the case of “PRT751 (LCATGDHDCEQVCISSPGSYTCACHEGFTLNSDGKTCN; listed as Homo sapiens)”, the “MIC (μg/mL) M. catarrhalis” value in the experiment with Moraxella catarrhalis (M. catarrhalis) was found to be 25 µg/mL. Moreover, the “MIC (μg/mL) A. hydrophila” value with Aeromonas hydrophila (A. hydrophila) worked out at 25 µg/mL. The “MIC (μg/mL) E. coli BL21” value against E. coli BL21 (E. coli BL21) stood at 25 µg/mL. For the same substance, the “MIC (μg/mL) K. pneumonia” value against Klebsiella pneumonia (K. pneumonia) worked out at 12.5 µg/mL. The “MIC (μg/mL) S. marcescens” value against Serratia marcescens (S. marcescens) was 12.5 µg/mL. Further, the “MIC (μg/mL) P. vulgaris” value against Proteus vulgaris (P. vulgaris) was determined as 25 µg/mL. The substance also gave an MIC against E. coli DH5α of 12.5 µg/mL. Further, the “MIC (μg/mL) E. cloacae” value against Enterobacter cloacae (E. cloacae) was 50 µg/mL. Further, the “MIC (μg/mL) P. aeruginosa” value in the experiment with Pseudomonas aeruginosa (P. aeruginosa) was 50 µg/mL. In addition, the “MIC (μg/mL) P. mirabilis” value in the experiment with Proteus mirabilis (P. mirabilis) amounted to 50 µg/mL. Further, the “MIC (μg/mL) C. diversus” value with Citrobacter diversus (C. diversus) was found to be 12.5 µg/mL.
For “PRT1456 (DYDECERKEDDCVPGTSCRNTLGSFTCSCEGGAPDFPVEYSE; listed as Homo sapiens)”, the “MIC against M. catarrhalis” value against Moraxella catarrhalis came out at 50 µg/mL. In addition, the “MIC against A. hydrophila” value with Aeromonas hydrophila amounted to 12.5 µg/mL. Besides, the “MIC against E. coli BL21” value in the experiment with E. coli BL21 (E. coli BL21) was determined as 25 µg/mL. Also, the “MIC against K. pneumonia” value with Klebsiella pneumonia stood at 50 µg/mL. Besides, the “MIC against S. marcescens” value against Serratia marcescens was 12.5 µg/mL. For the same substance, the “MIC against P. vulgaris” value in the experiment with Proteus vulgaris stood at 12.5 µg/mL. Moreover, the MIC in the experiment on E. coli DH5α was 12.5 µg/mL. Also, the “MIC against E. cloacae” value in the experiment with Enterobacter cloacae came out at 25 µg/mL. For the same substance, the “MIC against P. aeruginosa” value with Pseudomonas aeruginosa was 12.5 µg/mL. The “MIC against P. mirabilis” value against Proteus mirabilis stood at 12.5 µg/mL. Besides, in the experiment on Citrobacter diversus, the “MIC against C. diversus” value was determined as 25 µg/mL.
